Source: patent US20260027116A1, “Methods of Treating Chronic Graft-Versus-Host Disease Following Allogeneic Hematopoietic Stem Cell Transplantation” (Kadmon Corporation, LLC, priority 2022, published 2026)

Legend:
OATPIB1 = molecular target: T1, OATPIB1 (Homo sapiens, UniProt Q9Y6L6); assay: transporter inhibition in vitro; assay type: in vitro ADME; details: at clinically relevant concentrations
T1 sequence (Q9Y6L6 1-691): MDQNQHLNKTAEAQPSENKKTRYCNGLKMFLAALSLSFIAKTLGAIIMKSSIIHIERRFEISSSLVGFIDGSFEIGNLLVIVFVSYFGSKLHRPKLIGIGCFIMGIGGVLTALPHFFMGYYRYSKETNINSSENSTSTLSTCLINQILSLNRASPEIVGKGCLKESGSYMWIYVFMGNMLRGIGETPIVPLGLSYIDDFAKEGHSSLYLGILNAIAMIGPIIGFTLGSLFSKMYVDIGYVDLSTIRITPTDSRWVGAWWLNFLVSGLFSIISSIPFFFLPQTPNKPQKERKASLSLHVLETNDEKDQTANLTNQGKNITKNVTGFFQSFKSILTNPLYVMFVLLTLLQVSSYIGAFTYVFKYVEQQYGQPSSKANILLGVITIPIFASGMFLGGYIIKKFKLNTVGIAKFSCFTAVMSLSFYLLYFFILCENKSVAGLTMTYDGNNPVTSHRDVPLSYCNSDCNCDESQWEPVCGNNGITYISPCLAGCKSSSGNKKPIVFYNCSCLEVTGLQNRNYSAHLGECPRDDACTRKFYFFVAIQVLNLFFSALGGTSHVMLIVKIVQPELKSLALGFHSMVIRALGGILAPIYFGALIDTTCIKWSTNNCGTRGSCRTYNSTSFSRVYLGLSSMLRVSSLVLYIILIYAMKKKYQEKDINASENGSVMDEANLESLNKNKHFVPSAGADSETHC

CYP3A4 = CYP3A4 (Homo sapiens, UniProt P08684); assay: metabolism in vitro; assay type: in vitro ADME
Chain of CYP3A4 (P08684 whole entry): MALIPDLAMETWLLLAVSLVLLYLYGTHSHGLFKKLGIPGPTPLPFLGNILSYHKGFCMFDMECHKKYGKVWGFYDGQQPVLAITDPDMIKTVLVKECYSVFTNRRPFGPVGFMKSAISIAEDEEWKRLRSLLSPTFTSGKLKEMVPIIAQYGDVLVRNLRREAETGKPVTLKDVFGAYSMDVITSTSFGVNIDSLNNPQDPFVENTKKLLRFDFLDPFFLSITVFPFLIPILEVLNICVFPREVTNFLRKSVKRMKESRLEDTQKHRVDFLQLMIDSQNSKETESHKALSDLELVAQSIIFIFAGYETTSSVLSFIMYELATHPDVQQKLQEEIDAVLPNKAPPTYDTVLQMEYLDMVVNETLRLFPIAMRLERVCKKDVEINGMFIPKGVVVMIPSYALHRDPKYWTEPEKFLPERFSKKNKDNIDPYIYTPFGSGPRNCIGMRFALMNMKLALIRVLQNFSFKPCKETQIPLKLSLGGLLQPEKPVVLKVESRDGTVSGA

lung function = assay: Example 1: percent predicted HGB corrected DLco change from baseline; assay type: in vivo, human; details: mean (SD)
Description: Change From Baseline in Percent Predicted Hemoglobin (HGB) Corrected Diffusing Capacity of Lung for Carbon Monoxide (DLco) at Each Specified Time Points. DLco is a measurement of the ability of the lungs to transfer gases from the air to the blood. Change from baseline in diffusing capacity of the lung for carbon monoxide (percent predicted hemoglobin level corrected) was reported for this measure. Baseline value was defined as valid and last non-missing value obtained within 28 days prior to participant receiving first study medication. EOT visit was performed within 3 days after the participant's last dose of study drug. […] Analysis was performed on mITT population. Here, ‘number analyzed’=participants with available data for each specified category. Here, ‘O’ in the number analyzed field signifies that none of the participants were available for the analysis at the specified time points.

CC(C)NC(=O)COc1cccc(-c2nc(Nc3ccc4[nH]ncc4c3)c3ccccc3n2)c1 [Belumosudil, 2-{3-[4-(1H-indazol-5-ylamino)-2-quinazolinyl]phenoxy}-N-(propan-2-yl) acetamide]
inhibition of OATPIB1 (OATPIB1): inhibits | metabolism by CYP3A4 (CYP3A4): primarily metabolized | Change From Baseline in Percent Predicted Hemoglobin (HGB) Corrected Diffusing Capacity of Lung for Carbon Monoxide (DLco) (lung function; Cohort 1: 200 mg QD, Cycle 3, Day 1): 4.545 (22.991) Percent Predicted HGB Corrected DLco | Change From Baseline in Percent Predicted Hemoglobin (HGB) Corrected Diffusing Capacity of Lung for Carbon Monoxide (DLco) (lung function; Cohort 1: 200 mg QD, Cycle 5, Day 1): 4.635 (23.989) Percent Predicted HGB Corrected DLco | Change From Baseline in Percent Predicted Hemoglobin (HGB) Corrected Diffusing Capacity of Lung for Carbon Monoxide (DLco) (lung function; Cohort 1: 200 mg QD, Cycle 7, Day 1): 1.521 (19.836) Percent Predicted HGB Corrected DLco | Change From Baseline in Percent Predicted Hemoglobin (HGB) Corrected Diffusing Capacity of Lung for Carbon Monoxide (DLco) (lung function; Cohort 1: 200 mg QD, Cycle 9, Day 1): −4.514 (7.401) Percent Predicted HGB Corrected DLco | Change From Baseline in Percent Predicted Hemoglobin (HGB) Corrected Diffusing Capacity of Lung for Carbon Monoxide (DLco) (lung function; Cohort 1: 200 mg QD, Cycle 11, Day 1): −0.625 (7.262) Percent Predicted HGB Corrected DLco | Change From Baseline in Percent Predicted Hemoglobin (HGB) Corrected Diffusing Capacity of Lung for Carbon Monoxide (DLco) (lung function; Cohort 1: 200 mg QD, Cycle 12, Day 1): 0.531 (—) Percent Predicted HGB Corrected DLco | Change From Baseline in Percent Predicted Hemoglobin (HGB) Corrected Diffusing Capacity of Lung for Carbon Monoxide (DLco) (lung function; Cohort 1: 200 mg QD, Cycle 13, Day 1): −5.548 (12.175) Percent Predicted HGB Corrected DLco | Change From Baseline in Percent Predicted Hemoglobin (HGB) Corrected Diffusing Capacity of Lung for Carbon Monoxide (DLco) (lung function; Cohort 1: 200 mg QD, Cycle 14, Day 1): 12.916 (—) Percent Predicted HGB Corrected DLco | Change From Baseline in Percent Predicted Hemoglobin (HGB) Corrected Diffusing Capacity of Lung for Carbon Monoxide (DLco) (lung function; Cohort 1: 200 mg QD, Cycle 15, Day 1): 0.228 (15.731) Percent Predicted HGB Corrected DLco | Change From Baseline in Percent Predicted Hemoglobin (HGB) Corrected Diffusing Capacity of Lung for Carbon Monoxide (DLco) (lung function; Cohort 1: 200 mg QD, Cycle 16, Day 1): 48.465 (—) Percent Predicted HGB Corrected DLco | Change From Baseline in Percent Predicted Hemoglobin (HGB) Corrected Diffusing Capacity of Lung for Carbon Monoxide (DLco) (lung function; Cohort 1: 200 mg QD, Cycle 17, Day 1): −1.018 (9.226) Percent Predicted HGB Corrected DLco | Change From Baseline in Percent Predicted Hemoglobin (HGB) Corrected Diffusing Capacity of Lung for Carbon Monoxide (DLco) (lung function; Cohort 1: 200 mg QD, Cycle 19, Day 1): −2.293 (5.763) Percent Predicted HGB Corrected DLco | Change From Baseline in Percent Predicted Hemoglobin (HGB) Corrected Diffusing Capacity of Lung for Carbon Monoxide (DLco) (lung function; Cohort 1: 200 mg QD, Cycle 21, Day 1): −2.778 (8.187) Percent Predicted HGB Corrected DLco | Change From Baseline in Percent Predicted Hemoglobin (HGB) Corrected Diffusing Capacity of Lung for Carbon Monoxide (DLco) (lung function; Cohort 1: 200 mg QD, Cycle 23, Day 1): 0.354 (1.844) Percent Predicted HGB Corrected DLco | Change From Baseline in Percent Predicted Hemoglobin (HGB) Corrected Diffusing Capacity of Lung for Carbon Monoxide (DLco) (lung function; Cohort 1: 200 mg QD, Cycle 24, Day 1): 6.945 (—) Percent Predicted HGB Corrected DLco | Change From Baseline in Percent Predicted Hemoglobin (HGB) Corrected Diffusing Capacity of Lung for Carbon Monoxide (DLco) (lung function; Cohort 1: 200 mg QD, Cycle 25, Day 1): −4.461 (19.865) Percent Predicted HGB Corrected DLco | Change From Baseline in Percent Predicted Hemoglobin (HGB) Corrected Diffusing Capacity of Lung for Carbon Monoxide (DLco) (lung function; Cohort 1: 200 mg QD, Cycle 26, Day 1): 4.715 (—) Percent Predicted HGB Corrected DLco | Change From Baseline in Percent Predicted Hemoglobin (HGB) Corrected Diffusing Capacity of Lung for Carbon Monoxide (DLco) (lung function; Cohort 1: 200 mg QD, Cycle 27, Day 1): −8.047 (24.788) Percent Predicted HGB Corrected DLco | Change From Baseline in Percent Predicted Hemoglobin (HGB) Corrected Diffusing Capacity of Lung for Carbon Monoxide (DLco) (lung function; Cohort 1: 200 mg QD, Cycle 29, Day 1): −6.701 (1.671) Percent Predicted HGB Corrected DLco | Change From Baseline in Percent Predicted Hemoglobin (HGB) Corrected Diffusing Capacity of Lung for Carbon Monoxide (DLco) (lung function; Cohort 1: 200 mg QD, Cycle 31, Day 1): 2.343 (20.988) Percent Predicted HGB Corrected DLco | Change From Baseline in Percent Predicted Hemoglobin (HGB) Corrected Diffusing Capacity of Lung for Carbon Monoxide (DLco) (lung function; Cohort 1: 200 mg QD, Cycle 32, Day 1): 5.586 (—) Percent Predicted HGB Corrected DLco | Change From Baseline in Percent Predicted Hemoglobin (HGB) Corrected Diffusing Capacity of Lung for Carbon Monoxide (DLco) (lung function; Cohort 1: 200 mg QD, Cycle 33, Day 1): 9.901 (9.954) Percent Predicted HGB Corrected DLco | Change From Baseline in Percent Predicted Hemoglobin (HGB) Corrected Diffusing Capacity of Lung for Carbon Monoxide (DLco) (lung function; Cohort 1: 200 mg QD, Cycle 34, Day 1): 4.863 (—) Percent Predicted HGB Corrected DLco | Change From Baseline in Percent Predicted Hemoglobin (HGB) Corrected Diffusing Capacity of Lung for Carbon Monoxide (DLco) (lung function; Cohort 1: 200 mg QD, Cycle 35, Day 1): 13.867 (1.309) Percent Predicted HGB Corrected DLco | Change From Baseline in Percent Predicted Hemoglobin (HGB) Corrected Diffusing Capacity of Lung for Carbon Monoxide (DLco) (lung function; Cohort 1: 200 mg QD, Cycle 36, Day 1): 4.166 (—) Percent Predicted HGB Corrected DLco | Change From Baseline in Percent Predicted Hemoglobin (HGB) Corrected Diffusing Capacity of Lung for Carbon Monoxide (DLco) (lung function; Cohort 1: 200 mg QD, Cycle 37, Day 1): 9.306 (—) Percent Predicted HGB Corrected DLco | Change From Baseline in Percent Predicted Hemoglobin (HGB) Corrected Diffusing Capacity of Lung for Carbon Monoxide (DLco) (lung function; Cohort 1: 200 mg QD, Cycle 39, Day 1): 14.754 (0.649) Percent Predicted HGB Corrected DLco | Change From Baseline in Percent Predicted Hemoglobin (HGB) Corrected Diffusing Capacity of Lung for Carbon Monoxide (DLco) (lung function; Cohort 1: 200 mg QD, Cycle 40, Day 1): 5.586 (—) Percent Predicted HGB Corrected DLco | Change From Baseline in Percent Predicted Hemoglobin (HGB) Corrected Diffusing Capacity of Lung for Carbon Monoxide (DLco) (lung function; Cohort 1: 200 mg QD, Cycle 41, Day 1): 22.884 (—) Percent Predicted HGB Corrected DLco | Change From Baseline in Percent Predicted Hemoglobin (HGB) Corrected Diffusing Capacity of Lung for Carbon Monoxide (DLco) (lung function; Cohort 1: 200 mg QD, Cycle 43, Day 1): 15.213 (—) Percent Predicted HGB Corrected DLco | Change From Baseline in Percent Predicted Hemoglobin (HGB) Corrected Diffusing Capacity of Lung for Carbon Monoxide (DLco) (lung function; Cohort 1: 200 mg QD, Cycle 49, Day 1): −3.599 (—) Percent Predicted HGB Corrected DLco | Change From Baseline in Percent Predicted Hemoglobin (HGB) Corrected Diffusing Capacity of Lung for Carbon Monoxide (DLco) (lung function; Cohort 1: 200 mg QD, Cycle 51, Day 1): 11.734 (—) Percent Predicted HGB Corrected DLco | Change From Baseline in Percent Predicted Hemoglobin (HGB) Corrected Diffusing Capacity of Lung for Carbon Monoxide (DLco) (lung function; Cohort 1: 200 mg QD, Cycle 53, Day 1): 10.292 (—) Percent Predicted HGB Corrected DLco | Change From Baseline in Percent Predicted Hemoglobin (HGB) Corrected Diffusing Capacity of Lung for Carbon Monoxide (DLco) (lung function; Cohort 1: 200 mg QD, Cycle 55, Day 1): 16.550 (—) Percent Predicted HGB Corrected DLco | Change From Baseline in Percent Predicted Hemoglobin (HGB) Corrected Diffusing Capacity of Lung for Carbon Monoxide (DLco) (lung function; Cohort 1: 200 mg QD, Cycle 61, Day 1): 17.682 (—) Percent Predicted HGB Corrected DLco | Change From Baseline in Percent Predicted Hemoglobin (HGB) Corrected Diffusing Capacity of Lung for Carbon Monoxide (DLco) (lung function; Cohort 1: 200 mg QD, Cycle 62, Day 1): 4.170 (—) Percent Predicted HGB Corrected DLco | Change From Baseline in Percent Predicted Hemoglobin (HGB) Corrected Diffusing Capacity of Lung for Carbon Monoxide (DLco) (lung function; Cohort 1: 200 mg QD, Cycle 63, Day 1): 26.215 (—) Percent Predicted HGB Corrected DLco | Change From Baseline in Percent Predicted Hemoglobin (HGB) Corrected Diffusing Capacity of Lung for Carbon Monoxide (DLco) (lung function; Cohort 1: 200 mg QD, Cycle 67, Day 1): 41.384 (—) Percent Predicted HGB Corrected DLco | Change From Baseline in Percent Predicted Hemoglobin (HGB) Corrected Diffusing Capacity of Lung for Carbon Monoxide (DLco) (lung function; Cohort 1: 200 mg QD, EOT): −1.962 (11.426) Percent Predicted HGB Corrected DLco | Change From Baseline in Percent Predicted Hemoglobin (HGB) Corrected Diffusing Capacity of Lung for Carbon Monoxide (DLco) (lung function; Cohort 2: 200 mg BID, Cycle 3, Day 1): −0.638 (7.059) Percent Predicted HGB Corrected DLco | Change From Baseline in Percent Predicted Hemoglobin (HGB) Corrected Diffusing Capacity of Lung for Carbon Monoxide (DLco) (lung function; Cohort 2: 200 mg BID, Cycle 5, Day 1): −4.462 (23.621) Percent Predicted HGB Corrected DLco | Change From Baseline in Percent Predicted Hemoglobin (HGB) Corrected Diffusing Capacity of Lung for Carbon Monoxide (DLco) (lung function; Cohort 2: 200 mg BID, Cycle 7, Day 1): 6.184 (9.436) Percent Predicted HGB Corrected DLco | Change From Baseline in Percent Predicted Hemoglobin (HGB) Corrected Diffusing Capacity of Lung for Carbon Monoxide (DLco) (lung function; Cohort 2: 200 mg BID, Cycle 8, Day 1): 3.554 (—) Percent Predicted HGB Corrected DLco | Change From Baseline in Percent Predicted Hemoglobin (HGB) Corrected Diffusing Capacity of Lung for Carbon Monoxide (DLco) (lung function; Cohort 2: 200 mg BID, Cycle 9, Day 1): 2.570 (8.902) Percent Predicted HGB Corrected DLco | Change From Baseline in Percent Predicted Hemoglobin (HGB) Corrected Diffusing Capacity of Lung for Carbon Monoxide (DLco) (lung function; Cohort 2: 200 mg BID, Cycle 10, Day 1): 4.343 (3.144) Percent Predicted HGB Corrected DLco | Change From Baseline in Percent Predicted Hemoglobin (HGB) Corrected Diffusing Capacity of Lung for Carbon Monoxide (DLco) (lung function; Cohort 2: 200 mg BID, Cycle 11, Day 1): 6.582 (10.695) Percent Predicted HGB Corrected DLco | Change From Baseline in Percent Predicted Hemoglobin (HGB) Corrected Diffusing Capacity of Lung for Carbon Monoxide (DLco) (lung function; Cohort 2: 200 mg BID, Cycle 12, Day 1): 4.076 (—) Percent Predicted HGB Corrected DLco | Change From Baseline in Percent Predicted Hemoglobin (HGB) Corrected Diffusing Capacity of Lung for Carbon Monoxide (DLco) (lung function; Cohort 2: 200 mg BID, Cycle 13, Day 1): 1.882 (7.522) Percent Predicted HGB Corrected DLco | Change From Baseline in Percent Predicted Hemoglobin (HGB) Corrected Diffusing Capacity of Lung for Carbon Monoxide (DLco) (lung function; Cohort 2: 200 mg BID, Cycle 14, Day 1): 0.358 (—) Percent Predicted HGB Corrected DLco
